The values below come from patent publication US7595395B2, “Gabaergic agents to treat memory deficits” (priority 2005, dated 2009).

Data set [1] deals with GABAA/α2 receptors (Homo sapiens, UniProt P18507+P47869). The following applies: Huang et al. 2000, WO 03/082832A2; cited from earlier work.
The target in data set [2] is GABAA/α5 receptors (Homo sapiens, UniProt P18507+P31644). The note with it: Huang et al. 2000, WO 03/082832A2; cited from earlier work.
In data set [3] the target is GABAA/α1 receptors (Homo sapiens, UniProt P14867+P18507). The following applies: Huang et al. 2000, WO 03/082832A2; cited from earlier work.
For data set [4], the target named is GABAA/α3 receptors (Homo sapiens, UniProt P18507+P34903). The note with it: Huang et al. 2000, WO 03/082832A2; cited from earlier work.
Data set [5] relates to C57B1/6 mice. The note with it: DeLorey et al.; cited from earlier work.
Data set [6] relates to GABAA receptor subtypes (alpha 1 to alpha 6 with beta 3 and gamma 2). Description: Direct triggering of chloride currents in oocytes, all tested subtypes. Format: cell-based. The following applies: no GABA.
In data set [7] the target is α4β3γ2 GABAA receptor (Rattus norvegicus, UniProt P18508+P28471). Description: Two-electrode voltage clamp in Xenopus oocytes, α4β3γ2. Background: Two-electrode voltage clamp holds a large cell at a set potential and records current.
For data set [8], the target named is α3β3γ2 GABAA receptor (Rattus norvegicus, UniProt P18508+P20236). Description: Two-electrode voltage clamp in Xenopus oocytes, α3β3γ2.
In data set [9] the target is α5β3γ2 GABAA receptor (Rattus norvegicus, UniProt P18508+P19969). Description: Two-electrode voltage clamp in Xenopus oocytes, α5β3γ2.
The target in data set [10] is α6β3γ2 GABAA receptor (Rattus norvegicus, UniProt P18508+P30191). Description: Two-electrode voltage clamp in Xenopus oocytes, α6β3γ2.
The target of data set [11] is α2β3γ2 GABAA receptor (Rattus norvegicus, UniProt P18508+P23576). Description: Two-electrode voltage clamp in Xenopus oocytes, α2β3γ2.
Data set [12] addresses α1β3γ2 GABAA receptor (Rattus norvegicus, UniProt P18508+P62813). Description: Two-electrode voltage clamp in Xenopus oocytes, α1β3γ2.
Data set [13] relates to C57BL/6J mice. Description: Titrating delayed matching-to-position schedule. It is filed as in vivo. The procedure:
In regard to cognition, the effect of systemic administration of subtype selective agents on short term memory was determined in white Carneau pigeons. Administration of drug was intramuscularly and the titrating matching-to-sample schedule of reinforcement was used. […] In addition, C57BL/6J mice were used to look at the mean delay achieved in the titrating delayed matching-to-position schedule (doses, ip).

Data set [14] addresses T1, α5β3γ2 benzodiazepine receptor GABA(A) isoform (UniProt P18507+P31644).
T1 sequence (P18507 1-475): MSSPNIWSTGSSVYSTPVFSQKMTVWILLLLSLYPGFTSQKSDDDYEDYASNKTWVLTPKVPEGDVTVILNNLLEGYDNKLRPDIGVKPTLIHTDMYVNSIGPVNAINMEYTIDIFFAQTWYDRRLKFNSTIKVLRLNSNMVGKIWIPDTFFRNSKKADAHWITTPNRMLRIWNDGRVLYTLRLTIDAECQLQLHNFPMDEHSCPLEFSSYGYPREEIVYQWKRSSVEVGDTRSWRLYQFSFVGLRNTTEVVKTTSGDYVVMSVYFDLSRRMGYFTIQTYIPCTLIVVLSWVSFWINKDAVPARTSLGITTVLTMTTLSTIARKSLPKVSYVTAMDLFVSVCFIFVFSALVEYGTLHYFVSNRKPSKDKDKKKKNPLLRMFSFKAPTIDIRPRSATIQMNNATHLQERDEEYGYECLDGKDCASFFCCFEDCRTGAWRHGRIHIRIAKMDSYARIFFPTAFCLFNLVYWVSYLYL
T1 sequence (P31644 1-462): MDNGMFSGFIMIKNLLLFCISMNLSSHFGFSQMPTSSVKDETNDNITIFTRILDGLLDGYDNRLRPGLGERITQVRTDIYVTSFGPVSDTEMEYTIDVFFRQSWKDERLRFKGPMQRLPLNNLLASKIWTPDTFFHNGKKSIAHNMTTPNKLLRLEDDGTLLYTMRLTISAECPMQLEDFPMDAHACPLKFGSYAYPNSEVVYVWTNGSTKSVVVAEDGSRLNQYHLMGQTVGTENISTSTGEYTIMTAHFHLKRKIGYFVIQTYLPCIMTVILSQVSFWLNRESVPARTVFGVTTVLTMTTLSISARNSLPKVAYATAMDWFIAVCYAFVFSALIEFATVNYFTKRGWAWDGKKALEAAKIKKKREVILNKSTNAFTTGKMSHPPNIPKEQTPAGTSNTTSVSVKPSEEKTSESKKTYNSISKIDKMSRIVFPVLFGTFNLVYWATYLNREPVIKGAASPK
Description: Radioligand competition binding, α5β3γ2 BzR/GABA(A) isoform. Also on record: rows headed: Ki at α5β3γ2 subtypes; other: text; α1-6β3γ2 LTK cells; species or system human and rat. The note with it: read-out: Ki at α5β3γ2 subtypes; α1-6β3γ2 LTK cells. A general note: Loss of bound radioactivity is the signal in a displacement assay; it reports binding, not function.

The subject of data set [15] is αxβ3γ2 (α = 1-6) BzR/GABA(A) subtypes. Description: Binding across the BzR/GABA(A) subtypes (subtype selectivity in words). Further details: species or system human and rat. How it is done:
The binding affinity of XLi093 (8) in vitro was determined on α1-6β3γ2 LTK cells and is illustrated in the Scheme as shown in FIG. 2
The affinity of all ligands at the 6 major recombinant GABAA/BzR subtypes was measured by competition for [^3H]Ro15-1788 binding to HEK-T cells expressing both human and rat GABAA/Bz receptors of composition α1β2γ2 (α1), α2β2γ2 (α2), α3β2γ2 (α3), α4β2γ2 (α4), α5β2γ2 (α5) and α6β2γ2 (α6). It is well known that the β2 and β3 subunits can be interchanged with no effect on Bz ligand affinity or efficacy. […] These studies are similar to those performed in the laboratory of Bryan Roth who has already expressed the receptors employing the work of Kucken et. al. and Gray et. al.
In brief, for membrane preparations, the cells were scraped on to the ice and diluted into 5 mL of phosphate buffered saline (pH=7.40) and cells pelleted by centrifugation for 5 min. at 4° C. The pellet was resuspended in 1 mL of 50 mM Tris-acetate buffer (pH 7.4) and centrifuged at 18,000 g for 20 min. […] The membranes were harvested in polyethyleneimine-pretreated Whatman GF/C filters and after drying and addition of scintillation cocktail, counted in a scintillation counter. […]

A short description of data set [16]: Crossing of the blood brain barrier. The following applies: in vivo.

pKi: −log10 of the molar value.

Chain of α3β3γ2 GABAA receptor (P20236 29-493): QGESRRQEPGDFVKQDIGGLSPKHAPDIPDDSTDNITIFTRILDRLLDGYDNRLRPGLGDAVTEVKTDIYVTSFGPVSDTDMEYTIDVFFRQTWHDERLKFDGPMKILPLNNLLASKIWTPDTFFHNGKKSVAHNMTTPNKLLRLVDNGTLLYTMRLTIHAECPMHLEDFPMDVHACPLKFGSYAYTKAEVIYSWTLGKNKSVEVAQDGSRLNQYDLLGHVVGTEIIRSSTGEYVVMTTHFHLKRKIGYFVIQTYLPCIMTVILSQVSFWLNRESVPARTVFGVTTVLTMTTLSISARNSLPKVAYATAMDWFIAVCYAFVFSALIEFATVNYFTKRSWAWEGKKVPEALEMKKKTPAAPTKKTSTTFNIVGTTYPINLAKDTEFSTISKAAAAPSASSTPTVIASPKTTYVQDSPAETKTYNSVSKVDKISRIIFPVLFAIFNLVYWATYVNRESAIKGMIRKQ
Chain of α3β3γ2 GABAA receptor (P63079 26-473 partner): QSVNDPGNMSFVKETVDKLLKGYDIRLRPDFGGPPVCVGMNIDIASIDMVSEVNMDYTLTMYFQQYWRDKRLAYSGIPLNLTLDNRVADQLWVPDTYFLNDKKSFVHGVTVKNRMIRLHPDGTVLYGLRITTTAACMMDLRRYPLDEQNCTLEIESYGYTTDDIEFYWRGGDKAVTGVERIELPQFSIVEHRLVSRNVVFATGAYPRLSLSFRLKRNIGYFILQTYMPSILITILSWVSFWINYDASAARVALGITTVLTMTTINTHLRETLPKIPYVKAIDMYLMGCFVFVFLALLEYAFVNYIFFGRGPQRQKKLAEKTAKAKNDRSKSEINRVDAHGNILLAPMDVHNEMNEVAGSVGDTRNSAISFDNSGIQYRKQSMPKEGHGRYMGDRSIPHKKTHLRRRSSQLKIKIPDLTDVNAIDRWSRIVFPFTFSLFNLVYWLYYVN
Chain of α3β3γ2 GABAA receptor (P18508 39-466): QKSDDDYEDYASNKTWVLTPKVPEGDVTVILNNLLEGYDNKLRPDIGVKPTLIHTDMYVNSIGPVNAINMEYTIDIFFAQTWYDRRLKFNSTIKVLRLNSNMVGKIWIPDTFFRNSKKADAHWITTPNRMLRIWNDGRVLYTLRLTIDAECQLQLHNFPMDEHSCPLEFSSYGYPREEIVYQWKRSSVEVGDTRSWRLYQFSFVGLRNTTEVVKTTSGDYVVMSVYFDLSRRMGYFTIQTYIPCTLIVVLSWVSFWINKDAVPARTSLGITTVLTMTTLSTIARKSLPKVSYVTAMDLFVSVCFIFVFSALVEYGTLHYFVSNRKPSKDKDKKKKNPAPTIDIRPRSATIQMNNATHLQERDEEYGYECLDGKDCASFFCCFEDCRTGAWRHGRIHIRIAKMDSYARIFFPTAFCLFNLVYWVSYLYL
Chain of α5β3γ2 GABAA receptor (P19969 26-464): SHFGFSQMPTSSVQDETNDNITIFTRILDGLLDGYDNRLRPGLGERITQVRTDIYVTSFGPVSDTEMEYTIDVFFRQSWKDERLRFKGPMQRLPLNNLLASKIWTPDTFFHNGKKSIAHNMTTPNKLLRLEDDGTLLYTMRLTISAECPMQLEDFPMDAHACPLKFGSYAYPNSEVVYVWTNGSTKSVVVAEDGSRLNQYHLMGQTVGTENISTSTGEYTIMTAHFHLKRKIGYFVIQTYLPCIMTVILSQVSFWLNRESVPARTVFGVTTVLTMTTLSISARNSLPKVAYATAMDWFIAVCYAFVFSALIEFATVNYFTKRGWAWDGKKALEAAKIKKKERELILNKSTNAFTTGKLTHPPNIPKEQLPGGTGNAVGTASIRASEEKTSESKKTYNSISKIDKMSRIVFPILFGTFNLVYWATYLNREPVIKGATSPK
Chain of α5β3γ2 GABAA receptor (P63079 26-473 partner): as the sequence (P63079 26-473 partner) above
Chain of α5β3γ2 GABAA receptor (P18508 39-466): as the sequence (P18508 39-466) above
Chain of α1β3γ2 GABAA receptor (P62813 28-455): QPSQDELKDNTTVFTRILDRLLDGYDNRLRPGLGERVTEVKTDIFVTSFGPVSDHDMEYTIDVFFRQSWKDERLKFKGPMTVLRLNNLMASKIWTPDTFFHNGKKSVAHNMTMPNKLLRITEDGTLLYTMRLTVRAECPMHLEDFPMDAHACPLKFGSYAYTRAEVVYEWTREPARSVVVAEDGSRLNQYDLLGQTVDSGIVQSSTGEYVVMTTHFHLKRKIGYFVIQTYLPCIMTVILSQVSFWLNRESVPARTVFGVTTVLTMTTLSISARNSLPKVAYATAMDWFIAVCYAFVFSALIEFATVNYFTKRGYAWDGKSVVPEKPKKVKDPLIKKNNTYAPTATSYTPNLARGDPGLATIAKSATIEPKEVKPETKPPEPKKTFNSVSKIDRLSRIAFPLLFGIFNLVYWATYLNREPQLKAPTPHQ
Chain of α1β3γ2 GABAA receptor (P63079 26-473 partner): as the sequence (P63079 26-473 partner) above
Chain of α1β3γ2 GABAA receptor (P18508 39-466): as the sequence (P18508 39-466) above
Chain of GABAA/α1 receptors (P14867 28-456, one chain of several): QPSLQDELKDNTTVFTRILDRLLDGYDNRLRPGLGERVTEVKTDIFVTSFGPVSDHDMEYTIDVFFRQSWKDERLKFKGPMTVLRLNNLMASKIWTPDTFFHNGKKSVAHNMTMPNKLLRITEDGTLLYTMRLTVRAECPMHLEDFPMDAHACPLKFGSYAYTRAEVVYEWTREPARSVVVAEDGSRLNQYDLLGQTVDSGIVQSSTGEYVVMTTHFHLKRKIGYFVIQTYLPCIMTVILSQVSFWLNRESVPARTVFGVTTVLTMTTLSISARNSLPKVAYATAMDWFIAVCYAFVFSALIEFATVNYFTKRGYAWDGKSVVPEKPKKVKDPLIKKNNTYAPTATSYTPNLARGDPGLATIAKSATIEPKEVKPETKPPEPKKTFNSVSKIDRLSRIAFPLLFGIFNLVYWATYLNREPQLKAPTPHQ
Chain of GABAA/α1 receptors (P28472 26-473 partner, one chain of several): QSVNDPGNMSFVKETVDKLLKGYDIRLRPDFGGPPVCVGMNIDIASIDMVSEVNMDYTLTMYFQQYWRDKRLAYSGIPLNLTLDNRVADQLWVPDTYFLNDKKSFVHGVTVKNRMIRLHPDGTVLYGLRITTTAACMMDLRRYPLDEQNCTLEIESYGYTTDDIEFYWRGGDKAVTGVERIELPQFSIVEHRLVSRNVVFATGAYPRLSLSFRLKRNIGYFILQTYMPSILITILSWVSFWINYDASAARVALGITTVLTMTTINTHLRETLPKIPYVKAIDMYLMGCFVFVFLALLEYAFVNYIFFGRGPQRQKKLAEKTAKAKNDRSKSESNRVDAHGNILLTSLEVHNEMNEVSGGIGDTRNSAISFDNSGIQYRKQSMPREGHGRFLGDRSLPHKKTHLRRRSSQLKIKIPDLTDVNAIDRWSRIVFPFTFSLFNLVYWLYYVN

As to `C#Cc1ccc2c(c1)C(c1ccccc1)=NCC(=O)N2C` [QH-ii-066], the pKi in [1] was greater than 7.30; in data set [2] it was greater than 8.00; in data set [3], less than 7.15; in data set [4] it was greater than 7.30.
Consider `CCOC(=O)c1ncn2c1CN(C)C(=O)c1cc(CC)ccc1-2` [RY10, Ethyl 8-Ethyl-5,6-dihydro-5-methyl-6-oxo-4H-imidazo[1,5a][1,4]benzodiazepine-3-carboxylate], for which, in [5], the “reversal of scopolamine-induced memory impairment (in words)” value is recorded as “potently reversed scopolamine-induced memory impairment”.
Consider `C#Cc1ccc2c(c1)C(=O)N(C)Cc1c(C(=O)OC(C)(C)C)ncn1-2` [RY024], for which the “triggering of chloride currents (in words)” value in data set [6] (concentrations up to 1 μM) was “did not trigger chloride currents”. Further, the “Estimated maximum modulation ± SD” value in data set [7] (GABA EC20, α4β3γ2, extrapolated by curve-fit) was “+43.0 ± 15.9%”; in data set [8] (GABA EC20, α3β3γ2, extrapolated by curve-fit), −3.3±2.1%; in [9] (GABA EC20, α5β3γ2, extrapolated by curve-fit), −40.4±0.8%; in data set [10] (GABA EC20, α6β3γ2, extrapolated by curve-fit), “+35.2 ± 1.5%”; in [11] (GABA EC20, α2β3γ2, extrapolated by curve-fit), −20.7±1.2%; in data set [12] (GABA EC20, α1β3γ2, extrapolated by curve-fit), −31.0±2.5%. In data set [7] (oocytes), the “efficacy / modulation of GABA elicited currents at α4 (in words)” value is “weakly stimulated”. In addition, the “reduction of the stimulation by 30 nM Diazepam” value in data set [8] (1 μM compound, α3 containing receptors, GABA EC3) was found to be 96.3±4.7%. For the same compound, the “efficacy / modulation of GABA elicited currents at α3 (in words)” value in [8] (oocytes) is “no apparent modulation”. In addition, the “efficacy / modulation of GABA elicited currents at α5 (in words)” value in data set [9] (oocytes) is recorded as “reduced GABA elicited currents in a concentration dependent manner”. Further, the “EC50 lower for α5 containing receptors than for α1 and α2” value in [9] (reduction of GABA elicited currents) is roughly 10 fold. The “efficacy / modulation of GABA elicited currents at α6 (in words)” value in [10] (oocytes) is “weakly stimulated”. The “efficacy / modulation of GABA elicited currents at α2 (in words)” value in data set [11] (oocytes) was “reduced GABA elicited currents in a concentration dependent manner”. In addition, the “efficacy / modulation of GABA elicited currents at α1 (in words)” value in data set [12] (oocytes) was “reduced GABA elicited currents in a concentration dependent manner”.
As to `C#Cc1ccc2c(c1)C(=O)N(C)Cc1c(C(=O)OCCCOC(=O)c3ncn4c3CN(C)C(=O)c3cc(C#C)ccc3-4)ncn1-2` [XLi-093, 1,3-Bis(8-acetyleno-5,6-dihydro-5-methyl-6-oxo-4H-imidazo[1,5a][1,4]-benzodiaze-pine-3-carboxy)propyl diester], the “triggering of chloride currents (in words)” value in data set [6] (up to a concentration of 1 nM) was “did not trigger chloride currents”. Also, in [13], the “performance / mean delay under titrating delayed matching to position schedule (in words)” value is “does indeed enhance performance”. Besides, the “modulation of GABA induced chloride flux (in words)” value in data set [8] (1 uM, α3β3γ2) was “did not modulate”; in data set [9] (1 uM, α5β3γ2), “very slightly inhibited currents”; in data set [11] (1 uM, α2β3γ2), “did not modulate”; in data set [12] (1 uM, α1β3γ2), “did not modulate”. For the same compound, the “influence on diazepam stimulation of GABA-induced current (in words)” value in data set [8] (1 μM, α3β3γ2) is “only marginally influenced”; in data set [9] (1 μM, α5β3γ2) it was “shifted the diazepam dose response curve to the right”; in data set [11] (1 μM, α2β3γ2), “only marginally influenced”; in [12] (1 μM, α1β3γ2), “only marginally influenced”. In addition, the negative logarithm of the Ki (pKi) in data set [14] is 7.82. The “inhibition of diazepam-stimulated currents (in words)” value in data set [9] (α5β3γ2 receptors) was “dose dependently and completely inhibit”. In addition, the “affinity at other BzR/GABA(A) subtypes than α5 (in words)” value in data set [15] was “little or no affinity”. For the same compound, in data set [16], the “crossing of the blood brain barrier (in words)” value is on record as “does cross the blood brain barrier”.

As usually defined, the pKi is the Ki on a negative log10 scale, so that one unit is a factor of ten.
